Where two headings read alike, the source gives them in different places.
Legend:
[1] = biological target: T1, human delta opioid receptor (Homo sapiens, UniProt P41143); experiment: Radioligand binding, [3H]naltrindole (δ), CHO membranes
T1 construct: expressed in transfected cells; host or cells: CHO cells, stably transfected
Text: (§1) Compounds can be characterized in radioligand receptor binding assays, using ligands that are specific for the mu, delta and kappa receptors. The binding assays may utilize guinea pig brain membranes or stably transfected Chinese Hamster Ovary (CHO) cells expressing each of the three opioid receptors. Membranes can be isolated from CHO cells that stably express either the human mu, delta or kappa opioid receptors. At approximately 80% confluence, the cells are harvested by the use of a cell scraper. The cells and media from the plates are centrifuged at 200×g for 10 mm at 4° C.; resuspended in 50 mM Tris-HCl, pH 7.5; homogenized by the use of a Polytron; centrifuged at 48,000×g for 20 mm at 4° C.; and resuspended in 50 mM Tris-HCl, pH 7.5, at a protein concentration of 5-10 mg/ml, as determined by the Bradford method. The membranes are stored frozen, at −80° C. until use.
(§2) Cell membranes are incubated at 25° C. with the radiolabeled ligands in a final volume of 1 ml of 50 mM Tris-HCl, pH 7.5. […] Nonspecific binding is measured by inclusion of 1 μM naloxone. The binding can be terminated by filtering the samples through Schleicher & Scheull No. 32 glass fiber filters using a Brandel 48-well cell harvester. The filters are subsequently washed three times with 3 ml of cold 50 mM Tris-HCl, pH 7.5, and can be counted in 2 ml of Ecoscint A scintillation fluid. For [^3H]U69,593 binding, the filters are soaked in 0.1% polyethylenimine for at least 30 minutes before use. IC50 values can be calculated by a least squares fit to a logarithm-probit analysis. Ki values of unlabeled compounds are calculated from the equation Ki=(IC50)/1+S where S=(concentration of radioligand) (Kd of radioligand). Cheng and Prusoff, Biochem. Pharmacol. 22:3099 (1973). Alternatively, guinea pig brain membranes can be prepared and used as previously described in Neumeyer, et al., J. Med. Chem. 43:114 (2000).
(§3) As described in Example 12, 0.5 milligrams of protein per sample was incubated with 12 different concentrations of the compounds in the presence of receptor-specific radioligands at 25° C. in a final volume of 1 mL (50 mM Tris-HCl buffer, pH 7.5). Nonspecific binding was determined using 10 μM naloxone. The data in Table 1 are the mean values SEM from three experiments performed in triplicate.
as §3, with “Four 10-ketomorphinan compounds, see Table 2, were evaluated for their affinity and selectivity at the three opioid receptors. As” for “As”, “Table 2” for “Table 1”

[2] = biological target: T2, human kappa opioid receptor (Homo sapiens, UniProt P41145); experiment: Radioligand binding, [3H]U69,593 (κ), CHO membranes; details: for Selectivity δ:κ / Selectivity μ:κ: ratio of Ki values
T2 construct: expressed in transfected cells; host or cells: CHO cells, stably transfected
T2 sequence (P41145 whole entry): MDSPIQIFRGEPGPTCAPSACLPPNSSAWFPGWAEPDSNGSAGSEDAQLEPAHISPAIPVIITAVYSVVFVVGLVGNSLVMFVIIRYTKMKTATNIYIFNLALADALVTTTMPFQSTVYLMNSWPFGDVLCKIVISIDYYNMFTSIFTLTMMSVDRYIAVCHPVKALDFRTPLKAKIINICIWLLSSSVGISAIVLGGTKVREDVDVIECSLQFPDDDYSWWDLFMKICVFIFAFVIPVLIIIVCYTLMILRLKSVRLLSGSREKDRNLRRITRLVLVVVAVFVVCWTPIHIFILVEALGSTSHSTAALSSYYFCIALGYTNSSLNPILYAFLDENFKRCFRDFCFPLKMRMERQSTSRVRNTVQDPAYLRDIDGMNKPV
Text: as §1, §2, §3
as §3, with “Four 10-ketomorphinan compounds, see Table 2, were evaluated for their affinity and selectivity at the three opioid receptors. As” for “As”, “Table 2” for “Table 1”

human mu opioid receptor = biological target: T3, human mu opioid receptor (Homo sapiens, UniProt P35372); experiment: Radioligand binding, [3H]DAMGO (μ), CHO membranes
T3 construct: expressed in transfected cells; host or cells: CHO cells, stably transfected
T3 sequence (P35372 whole entry): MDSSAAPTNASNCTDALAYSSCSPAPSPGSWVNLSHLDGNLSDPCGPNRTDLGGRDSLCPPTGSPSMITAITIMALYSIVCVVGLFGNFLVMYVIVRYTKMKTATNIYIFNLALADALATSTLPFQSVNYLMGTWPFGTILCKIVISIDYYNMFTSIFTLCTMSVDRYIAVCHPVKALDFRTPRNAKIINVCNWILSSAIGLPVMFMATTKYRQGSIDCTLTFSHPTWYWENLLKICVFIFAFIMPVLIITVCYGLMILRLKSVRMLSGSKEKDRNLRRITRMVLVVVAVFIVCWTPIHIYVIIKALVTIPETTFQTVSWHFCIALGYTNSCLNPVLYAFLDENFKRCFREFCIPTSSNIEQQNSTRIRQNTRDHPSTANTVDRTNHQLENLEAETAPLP
Text: as §1, §2, §3
as §3, with “Four 10-ketomorphinan compounds, see Table 2, were evaluated for their affinity and selectivity at the three opioid receptors. As” for “As”, “Table 2” for “Table 1”

kappa receptor = biological target: T4, kappa receptor (Homo sapiens, UniProt P41145); experiment: [35S]GTPgammaS binding assay, kappa receptor; type: biochemical; details: CHO membranes
T4 construct: expressed in transfected cells; host or cells: CHO cell lines
T4 sequence (P41145 whole entry): as the sequence (P41145 whole entry) above
Experimental: (§4) Membranes from the CHO cell lines, expressing either the mu, delta or kappa receptor, are incubated with 12 concentrations of each opioid for 60 minutes at 30° C. in a final volume of 0.5 ml of assay buffer (50 mM Tris-HCl, 3 mM MgCl2, 0.2 mM EGTA, 100 mM NaCl, pH 7.5) containing 3 μM GDP and 0.08 nM [^35S]GTPgammaS. Basal binding can be determined in the presence of GDP and the absence of opioids, and nonspecific binding can be determined by including 10 μM unlabeled […]. The incubation can be terminated by filtration under vacuum through glass fiber filters, followed by three washes with 3 ml ice-cold 50 mM Tris-HCl, pH 7.5. Samples can be allowed to equilibrate overnight and can be counted in 2 ml Ecoscint A scintillation fluid for 2 minutes in a liquid scintillation counter.
(§5) For [^35S]GTPgammaS binding assays, percent stimulation of [^35S]GTPgammaS binding is defined as [(opioid-stimulated binding-basal binding) basal binding]×100. Percent stimulation is plotted as a function of opioid concentration (log scale), and EC50 and Emax values are determined by linear regression analysis. All data is compared across conditions using ANOVA and non-paired two-tailed Student's tests.

mu receptor = biological target: T5, mu receptor (Homo sapiens, UniProt P35372); experiment: [35S]GTPgammaS binding assay, mu receptor; type: biochemical; details: CHO membranes
T5 construct: expressed in transfected cells; host or cells: CHO cell lines
T5 sequence (P35372 whole entry): as the sequence (P35372 whole entry) above
Experimental: as §4, §5

[3] = read-out: Ki (nM) ± SE [3H]Naltrindole (δ), Table 1, CHO membranes, 25° C., mean ± SEM of three experiments in triplicate
[4] = Table 1, CHO membranes, 25° C., mean ± SEM of three experiments in triplicate, read-out: Ki (nM) ± SE [3H]U69,593 (κ)
[5] = read-out: Ki (nM) ± SE [3H]DAMGO (μ), Table 1, CHO membranes, 25° C., mean ± SEM of three experiments in triplicate
[6] = Table 1, CHO membranes, 25° C., mean ± SEM of three experiments in triplicate
[7] = read-out: Ki (nM) ± SE [3H]Naltrindole (δ), Table 2, CHO membranes, 25° C., mean ± SEM of three experiments in triplicate

T1 sequence (P41143 whole entry): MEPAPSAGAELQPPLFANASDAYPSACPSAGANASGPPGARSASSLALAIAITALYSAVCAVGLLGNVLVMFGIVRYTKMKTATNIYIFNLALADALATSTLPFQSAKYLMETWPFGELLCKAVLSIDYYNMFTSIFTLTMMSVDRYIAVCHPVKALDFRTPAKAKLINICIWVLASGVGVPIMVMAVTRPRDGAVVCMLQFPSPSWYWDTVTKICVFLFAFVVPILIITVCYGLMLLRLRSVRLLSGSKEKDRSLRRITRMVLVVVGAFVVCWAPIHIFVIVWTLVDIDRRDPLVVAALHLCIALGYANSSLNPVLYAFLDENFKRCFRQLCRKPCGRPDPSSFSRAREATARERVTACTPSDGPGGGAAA

| Compound | Ki [1, 3] | Ki [2, 4] | Selectivity δ:κ ([2]; Table 1) | Selectivity μ:κ ([2]; Table 1) | Ki (human mu opioid receptor; [5]) | Ki [1, 7] | Ki [2] | Selectivity δ:κ ([2]; Table 2) | Selectivity μ:κ ([2]; Table 2) | Ki (human mu opioid receptor) | also measured |
| --- | --- | --- | --- | --- | --- | --- | --- | --- | --- | --- | --- |
| CN1CC[C@]23CCCC[C@H]2[C@H]1Cc1cc2sc(N)nc2cc13 [Compound 69] | 1100 ± 30 nM | 29 nM | 38 | 4.5 | 130 ± 5.8 nM |  |  |  |  |  |  |
| CN1CC[C@]23CCCC[C@H]2[C@H]1Cc1c3ccc2nc(N)sc12 [Compound 70] |  | 6.4 ± 0.53 nM | 30 | 0.17 |  |  |  |  |  |  | Ki [1, 6]: 190 ± 9.7 nM; Ki (human mu opioid receptor; [6]): 1.1 ± 0.13 nM |
| Nc1nc2cc3c(cc2s1)C[C@@H]1[C@@H]2CCCC[C@]32CCN1CC1CC1 [Compound 71] | 29 ± 2 nM | 0.049 ± 0.0046 nM | 590 | 30 | 1.5 ± 0.21 nM |  |  |  |  |  | Efficacy (agonist, partial agonist, antagonist) at κ receptor (kappa receptor): κ and μ agonist; Relative potency κ versus μ (kappa receptor): more potent at κ than at μ; Efficacy (agonist, partial agonist, antagonist) at μ receptor (mu receptor): κ and μ agonist |
| Nc1nc2cc3c(cc2s1)C[C@@H]1[C@@H]2CCCC[C@]32CCN1CC1CCC1 [Compound 72] | 230 ± 21 nM | 0.79 ± 0.02 nM | 290 | 9.0 | 7.1 ± 0.47 nM |  |  |  |  |  | Efficacy (agonist, partial agonist, antagonist) at κ receptor (kappa receptor): κ agonist; Efficacy (agonist, partial agonist, antagonist) at μ receptor (mu receptor): weak agonist and antagonist activity |
| C#CCN1CC[C@]23CCCC[C@H]2[C@H]1C(=O)c1ccc(O)cc13 [Compound 73, 3-Hydroxy-10-keto-N-propargylmorphinan] |  |  |  |  |  | 2300 ± 190 nM | 60 ± 1.7 nM | 38 | 3.2 | 190 ± 4.4 nM |  |
| O=C1c2ccc(O)cc2[C@@]23CCCC[C@H]2[C@@H]1N(CC1CCC1)CC3 [Compound 74, 3-Hydroxy-10-keto-N-cyclobutylmethylmorphinan] |  |  |  |  |  | 260 ± 55 nM |  | 540 | 6.9 |  | Ki ([2]; Table 2, CHO membranes, 25° C., mean ± SEM of three experiments in triplicate, read-out: Ki (nM) ± SE [3H]U69,593 (κ)): 0.48 ± 0.027 nM; Ki (human mu opioid receptor; read-out: Ki (nM) ± SE [3H]DAMGO (μ), Table 2, CHO membranes, 25° C., mean ± SEM of three experiments in triplicate): 3.3 ± 0.26 nM |
| O=C1c2ccc(O)cc2[C@@]23CCCC[C@H]2[C@@H]1N(CCCF)CC3 [Compound 75, 3-Hydroxy-10-keto-N-(3-fluoropropyl)morphinan] |  |  |  |  |  | 690 ± 171 nM |  |  |  | 20 ± 4.8 nM |  |
| COCCN1CC[C@]23CCCC[C@H]2[C@H]1C(=O)c1ccc(O)cc13 [Compound 76, 3-Hydroxy-10-keto-N-(2-methoxyethyl)morphinan] |  |  |  |  |  |  | 17 ± 0.6 nM | 590 | 5.3 | 90 ± 10 nM | Ki [1]: > 10000 nM |
| O=C1c2ccc(O)cc2[C@@]23CCCC[C@H]2[C@@H]1N(CCc1ccccc1)CC3 [Compound 77, 3-Hydroxy-10-keto-N-(2-phenylethyl)morphinan] |  |  |  |  |  | 9.7 ± 0.34 nM | 7.7 ± 0.19 nM | 1.3 | 0.08 | 0.63 ± 0.07 nM |  |
